The values below come from ChEMBL document CHEMBL1146479, “Antineoplastic agents. 522. Hernandia peltata (Malaysia) and Hernandia nymphaeifolia (Republic of Maldives)” (2004).

What all share (assay type): functional
One test has as its system Neisseria gonorrhoeae. As to the kind of experiment: Antimicrobial activity against Neisseria gonorrhoeae ATCC 49226 by antimicrobial susceptibility testing.
The test system of another test is KM-20L2. As to the kind of experiment: Anticancer activity against human KM20L2 cells after 48 hrs by SRB assay. Particulars: KM-20L2, 48 h, read-out: ED50 (the source's name). A general note: In SRB staining, fixed cells bind dye roughly in proportion to their protein.
The subject of another test is DU-145. As to the kind of experiment: Anticancer activity against human DU145 cells after 48 hrs by SRB assay. Particulars: DU-145, 48 h, read-out: ED50 (the source's name).
A further test concerns BXPC-3. As to the kind of experiment: Anticancer activity against human BxPC3 cells after 48 hrs by SRB assay. Particulars: BXPC-3, 48 h, read-out: ED50 (the source's name).
Another test deals with P388. The experiment in a line: Anticancer activity against mouse P388 cells after 48 hrs. Particulars: P388, 48 h, read-out: ED50 (the source's name).
In a further test the test system is MCF7. As to the kind of experiment: Anticancer activity against human MCF7 cells after 48 hrs by SRB assay. Particulars: MCF7, 48 h, read-out: ED50 (the source's name).
In the next test the test system is NCI-H460. The experiment in a line: Anticancer activity against human NCI-H460 cells after 48 hrs by SRB assay. Particulars: NCI-H460, 48 h, read-out: ED50 (the source's name).
The next test relates to SF-268. As to the kind of experiment: Anticancer activity against human SF268 cells after 48 hrs by SRB assay. Particulars: SF-268, 48 h, read-out: ED50 (the source's name).

Values after ≈ are worked out from the molar mass of the structure shown. Bounds are passed on as bounds.

In the test on Neisseria gonorrhoeae, `COc1ccc(CC2COC(O)C2Cc2ccc(OC)c(OC)c2)cc1OC` (stereo not given) [KUSUNOKINOL] registered an MIC of 32 µg/mL (≈ 82.4 µM).

In the test on Neisseria gonorrhoeae, `COc1cc([C@@H]2c3cc4c(cc3C[C@H]3COC(=O)[C@@H]32)OCO4)cc(OC)c1OC` [DESOXYPODOPHYLLOTOXIN] displayed an MIC of 32 µg/mL (≈ 80.3 µM). The EC50 was 0.0028 µg/mL (≈ 0.00703 µM) in the test with KM-20L2; 0.0028 µg/mL (≈ 0.00703 µM) in the test on DU-145; 0.0029 µg/mL (≈ 0.00728 µM) in the test on BXPC-3; 0.0023 µg/mL (≈ 0.00577 µM) in the test with P388; 0.0021 µg/mL (≈ 0.00527 µM) in the test on MCF7; 0.0027 µg/mL (≈ 0.00678 µM) in the test on NCI-H460. In addition, the EC50 in the test on SF-268 worked out at 0.0033 µg/mL (≈ 0.00828 µM).

`COc1ccc(C[C@H]2COC(=O)[C@@H]2Cc2ccc(OC)c(OC)c2)cc1OC` returned an MIC in the test with Neisseria gonorrhoeae of 32 µg/mL (≈ 82.8 µM).

Turning to `COc1cc([C@@H]2c3cc4c(cc3C[C@H]3COC(=O)[C@H]32)OCO4)cc(OC)c1OC` [DEOXYPICROPODOPHYLLIN], in the test on Neisseria gonorrhoeae, inhibition of growth (MIC) required 32 µg/mL (≈ 80.3 µM). The EC50 in the test with KM-20L2 amounted to 0.054 µg/mL (≈ 0.136 µM); in the test with DU-145, 0.051 µg/mL (≈ 0.128 µM); in the test with BXPC-3, 0.061 µg/mL (≈ 0.153 µM); in the test on P388, 0.03 µg/mL (≈ 0.0753 µM); in the test with MCF7, 0.026 µg/mL (≈ 0.0653 µM); with NCI-H460, 0.067 µg/mL (≈ 0.168 µM). Also, the EC50 with SF-268 was determined as 0.041 µg/mL (≈ 0.103 µM).

Regarding `COc1cc(C[C@H]2COC(=O)[C@@H]2Cc2cc(OC)c(OC)c(OC)c2)ccc1O` [HERNANOL], the MIC against Neisseria gonorrhoeae amounted to 32 µg/mL (≈ 79.5 µM).

Regarding `COc1ccc([C@H]2OC[C@H]3[C@@H]2CO[C@H]3c2ccc(OC)c(OC)c2)cc1OC`, the EC50 with KM-20L2 worked out at 3 µg/mL (≈ 7.76 µM); in the test on DU-145, 3.1 µg/mL (≈ 8.02 µM); in the test on BXPC-3, 3.4 µg/mL (≈ 8.8 µM); with P388 it was 1.7 µg/mL (≈ 4.4 µM); in the test with MCF7, 3.5 µg/mL (≈ 9.06 µM); with NCI-H460, 3.8 µg/mL (≈ 9.83 µM). For the same compound, in the test on SF-268, the EC50 came to 3.8 µg/mL (≈ 9.83 µM).

Compound `COc1cc2c(c(OC)c1OC)[C@]13C=C(O)C(=O)C=C1O[C@H]2[C@H]1C(=O)OC[C@@H]1C3` had an MIC in the test on Neisseria gonorrhoeae of 32 µg/mL (≈ 79.9 µM).

As for `COc1cc(CC2C(Cc3ccc4c(c3)OCO4)COC2O)cc(OC)c1OC` (stereo not given) [CLUSIN], in the test with Neisseria gonorrhoeae, 32 µg/mL (≈ 79.5 µM) was the least that counted as inhibitory (MIC).

With `COc1cc([C@@H]2OC[C@H]3[C@@H]2CO[C@@H]3c2ccc3c(c2)OCO3)cc(OC)c1OC`, the EC50 with KM-20L2 was greater than 10 µg/mL; in the test on DU-145 it was greater than 10 µg/mL; with BXPC-3, greater than 10 µg/mL; with P388, 1.5 µg/mL (≈ 3.75 µM); in the test on MCF7 it was greater than 10 µg/mL; with NCI-H460, greater than 10 µg/mL. Moreover, the EC50 in the test on SF-268 was greater than 10 µg/mL.

With `COc1cc2c(c(OC)c1OC)-c1cc3c(cc1C[C@H]1COC(=O)[C@@H]1C2)OCO3` [STEGANE], the EC50 amounted to 4.8 µg/mL (≈ 12 µM) in the test with KM-20L2; 5.3 µg/mL (≈ 13.3 µM) in the test on DU-145; 4.7 µg/mL (≈ 11.8 µM) in the test on BXPC-3; 6.1 µg/mL (≈ 15.3 µM) in the test on P388; 4.3 µg/mL (≈ 10.8 µM) in the test on MCF7; 5.8 µg/mL (≈ 14.6 µM) in the test on NCI-H460. Moreover, the EC50 with SF-268 is 4.9 µg/mL (≈ 12.3 µM).

In the test on Neisseria gonorrhoeae, `COc1cc([C@@H](O)[C@H]2C(=O)OC[C@@H]2Cc2ccc3c(c2)OCO3)cc(OC)c1OC` [PODORHIZOL] registered an MIC of 32 µg/mL (≈ 76.8 µM). Moreover, the EC50 with KM-20L2 is greater than 10 µg/mL; with DU-145, greater than 10 µg/mL; in the test on BXPC-3, 3.8 µg/mL (≈ 9.13 µM); in the test on P388, greater than 1 µg/mL; with MCF7, 6.6 µg/mL (≈ 15.8 µM); in the test on NCI-H460, greater than 10 µg/mL. Moreover, in the test with SF-268, the EC50 is greater than 10 µg/mL.

In general, MIC refers to the lowest concentration found to suppress growth. A low value points to inhibition by little substance.
